Measured values from publication PMC9945177, “Nature-Derived Epoxy Resin Monomers with Reduced Sensitizing Capacity—Isosorbide-Based Bis-Epoxides” (Chemical Research in Toxicology, 2023).

Assays:
Female CBA/Ca mice = experiment: murine local lymph node assay (LLNA); assay type: in vivo
Description: Female CBA/Ca mice, 7 to 9 weeks of age, were purchased from NOVA SCB Charles River, Germany. The mice were housed in HEPA-filtered air flow cages and kept on standard laboratory diet and water ad lib. The regional ethics committee, Jordbruksverket, approved the protocol and the procedure was performed in accordance with the guidelines.
A previously published protocol[24] of the LLNA[34] was used to assess the sensitization potential of the isosorbide bis-epoxides 1–3. The purity of the assessed isosorbide bis-epoxides was >99% (GC/MS or LC/MS) before testing of sensitization potential. The isosorbide bis-epoxides were tested in five different concentrations; 1: 3.9 mM (0.10% w/v), 39 mM (1.0% w/v), 190 mM (5.0% w/v), 390 mM (10% w/v), and 770 mM (20% w/v); 2: 21 mM (1.0% w/v), 54 mM (2.5% w/v), 110 mM (5.0% w/v), 210 mM (10% w/v), and 540 mM (25% w/v); and 3: 2.3 mM (0.10% w/v), 23 mM (1.0% w/v), 110 mM (5.0% w/v), 230 mM (10% w/v), and 460 mM (20% w/v). A detailed description is given in Supporting Information.
The three isosorbide bis-epoxides were evaluated for sensitization potential in vivo with the murine LLNA (Figure 2). The stimulation index (SI) is defined as the ratio between the dpm/lymph node for the test group and the control group. Test materials that at one or more concentrations cause an SI greater than 3 are considered positive in the LLNA. The estimated concentration required to induce an SI of 3 (EC3) is used to determine the sensitizing potency of the test compound. […] Isosorbide bis-epoxide 1 gave an EC3 value of 0.17 M (4.4%), 3 gave an EC3 value of 0.36 M (16%), and no EC3 value was obtained for 2 (for full results, see the Supporting Information, Table S1).
A previously published protocol1 of the LLNA2 was used to assess the sensitization potential of the isosorbide bis-epoxides 1-3. The purity of the assessed isosorbide bis-epoxides was >98% according to LC/MS analysis. The isosorbide bis-epoxides were tested in five different concentrations; 1: 3.87 mM […]
456 mM (20% w/v). Briefly, mice in groups of three received 25 µL of test compound dissolved in the vehicle acetone/olive oil (4:1 v/v), on the dorsum of the ears for three consecutive days (day 0, 1, and 2). A sixth group of four mice was treated with vehicle only (control group). On day 5, all mice were injected intravenously via the tail vein with 250 µL of phosphate buffered saline (PBS) (pH 7.4, 137 mM NaCl, 2.7 mM KCl, and 10 mM phosphate buffer) containing 20 µCi [methyl-3H]thymidine. Five hours later the mice were sacrificed, the draining lymph nodes were excised and pooled for each group, followed by preparation of single-cell suspensions of lymph nodes in PBS by using cell strainers (Falcon; BD Labware, Franklin Lakes, NJ, USA; pore size, 70 µm). Cell suspensions were washed twice with PBS, precipitated with trichloroacetic acid (TCA) (5%), and stored at 4 °C overnight. The samples were then centrifuged, resuspended in TCA (5%, 1 mL), and transferred to scintillation cocktail (10 mL) (EcoLume INC Radiochemicals, Solon, OH, USA). The incorporation of [methyl-3H]thymidine into DNA was measured by b-scintillation counting with a Beckman LS 6000TA instrument. Results are expressed as the mean dpm/lymph node for each experimental group and as stimulation index (SI). The SI is defined as the ratio between dpm/lymph node for the test group and the control group. Test materials that at one or more concentrations cause an SI greater than 3 are considered positive in the LLNA. EC3 values (the estimated concentration required to induce an SI of 3) were calculated by linear interpolation.
Results from the Local Lymph Node Assay
Table S1: Full results from the LLNA of bis-epoxides 1-3a
Test Test [3H]thymidine SI EC value

AcPHCKRM = experiment: peptide depletion with AcPHCKRM; conditions: peptide 1 mM, test compound 10 mM, DMSO/phosphate buffer pH 7.4 (1:1), room temperature
Description: Liquid chromatography-mass spectroscopy (LC-MS) analyses of peptide depletion experiments were performed using electrospray ionization (ESI) on a Hewlett-Packard 1100 HPLC/MS (Agilent Technologies, Waldbronn, Germany). The system included a vacuum degasser, a binary pump, an autoinjector, a column thermostat, a diode array detector, and a single quadrupole mass spectrometer. The high-performance liquid chromatography (HPLC) system was equipped with a HyPURITY C18 column (150 × 3 mm i.d., particle size 3 μm, Thermo Hypersil-Keystone, Thermo Electron Corp., Bellafonte, PA, USA). The mobile phase consisted of 0.005% pentafluoropropanoic acid, 0.1% acetic acid, and 5% acetonitrile in water (solvent A) and 0.005% pentafluoropropanoic acid, 0.1% acetic acid, and 50% water in acetonitrile (solvent B). […] The gradient conditions used were as follows: 0-8% B (0-3 min), 8-10% B (3-15 min), 10-100% B (15-18 min), 100% B (18-30 min), 100-0% B (30-30.1 min), 0% B (30.1-40 min). The ESI interface was used in positive ionization mode with the following spray chamber settings: nebulizer pressure, 35 psi; capillary voltage, 3000 V; drying gas temperature, 350 °C; and drying gas flow rate, 12 L/min. The fragmentor voltage was set to 120 V. The mass spectrometer was used in scan mode detecting molecular ions with m/z values ranging from 50 to 1800. All solvents were degassed with argon prior to use.

[1] = thermogravimetric analysis (TGA) of polymers formed with TETA; assay type: physicochemical; conditions: polymer cured with TETA, TGA under nitrogen
Description: Detailed information on the polymerization procedure and the thermogravimetric analysis (TGA) is given in the Supporting Information.
Pilot experiments using TGA were conducted to investigate the properties of the polymers formed from isosorbide bis-epoxides 1–3 and the commonly used curing agent TETA (Table 2 and Figure 6). The onset of degradation is described by the initial decomposition temperature (IDT) and is an indication of the thermal stability of the cured epoxy resins. The maximum weight loss rate (Rmax) and the temperature (Tmax) at Rmax were taken from the peak values of the thermograms. The activation energies (Ea) for the decomposition of the polymers were calculated from the thermograms based on the Horowitz–Metzger equation.[43],[44]

[2] = estimated concentration required to induce an SI of 3, linear interpolation

Row | SMILES | SI (Female CBA/Ca mice; test concentration 1.0% w/v) | [3H]thymidine incorporation (dpm/lymph node) (Female CBA/Ca mice; test concentration 1.0% w/v) | SI (Female CBA/Ca mice; test concentration 5.0% w/v) | [3H]thymidine incorporation (dpm/lymph node) (Female CBA/Ca mice; test concentration 5.0% w/v) | SI (Female CBA/Ca mice; test concentration 10% w/v) | [3H]thymidine incorporation (dpm/lymph node) (Female CBA/Ca mice; test concentration 10% w/v) | reactivity with the model peptide AcPHCKRM (AcPHCKRM) | Ea (activation energy for the decomposition of the cured epoxy resins) [1] | IDT (initial decomposition temperature) [1] | Rmax (maximum weight loss rate) [1] | Tmax (temperature at the maximum rate of weight loss) [1] | further results
1 | O=C(OC1COC2C(OC(=O)c3ccc(CC4CO4)cc3)COC12)c1ccc(CC2CO2)cc1 [Compound 2, (3R,3aR,6S,6aR)-3,6-O-Bis[4-(3,4-epoxypropyl)benzoyl]-1,4:3,6-dianhydro-D-glucitol] | 1.06 | 455 dpm/lymph node | 1.10 | 473 dpm/lymph node | 1.07 | 459 dpm/lymph node | least reactive | 66 kJ/mol | 361 °C | –0.373 %/°C | 411 °C | LLNA outcome (Female CBA/Ca mice; in concentrations up to 25% w/v (0.54 M)): nonsensitizing; SI (Female CBA/Ca mice; test concentration 2.5% w/v): 1.43; [3H]thymidine incorporation (dpm/lymph node) (Female CBA/Ca mice; test concentration 2.5% w/v): 614 dpm/lymph node; SI (Female CBA/Ca mice; test concentration 25% w/v): 2.27; [3H]thymidine incorporation (dpm/lymph node) (Female CBA/Ca mice; test concentration 25% w/v): 972 dpm/lymph node
2 | c1cc(CC2CO2)ccc1CO[C@H]1CO[C@H]2[C@@H]1OC[C@H]2OCc1ccc(CC2CO2)cc1 (stereo partly drawn) [Compound 3, (3R,3aR,6S,6aR)-3,6-O-Bis[4-(3,4-epoxypropyl)benzyl]-1,4:3,6-dianhydro-D-glucitol] | 1.56 | 706 dpm/lymph node | 2.55 | 1158 dpm/lymph node | 2.85 | 1292 dpm/lymph node | slightly less reactive | 76 kJ/mol | 329 °C | –0.722 %/°C | 382 °C | EC3 value (%) (Female CBA/Ca mice; as printed in main text): 16%; sensitizing potency classification (Female CBA/Ca mice; classified by EC3): moderate (EC3 > 2%, moderate); EC3 value (Female CBA/Ca mice; [2]): 0.36 M; EC3 value (% w/v) (Female CBA/Ca mice; [2]): 15.8 % w/v; SI (Female CBA/Ca mice; test concentration 0.10% w/v): 1.06; [3H]thymidine incorporation (dpm/lymph node) (Female CBA/Ca mice; test concentration 0.10% w/v): 479 dpm/lymph node; SI (Female CBA/Ca mice; test concentration 20% w/v): 3.11; [3H]thymidine incorporation (dpm/lymph node) (Female CBA/Ca mice; test concentration 20% w/v): 1412 dpm/lymph node
